Non-standard residues stand in square brackets, D forms with d. Residues, ends and D or L forms follow the SMILES beside them. *: point of attachment. Cha = N[C@@H](CC1CCCCC1)C(=O)O; dCha = N[C@H](CC1CCCCC1)C(=O)O; dChg = N[C@@H](C(=O)O)C1CCCCC1; pNA = O=[N+]([O-])c1ccc(N*)cc1; AMC = Cc1cc(=O)oc2cc(N*)ccc12; βNA = c1ccc2cc(N*)ccc2c1
How the values were obtained:
Format in all cases: biochemical
[1] = target: T1, Humanthrombin (Homo sapiens, UniProt P00734); test: Cleavage of chromogenic substrate by human NIH thrombin; settings: 1 NIH-Einheit human thrombin, per min; Substratkonzentration 2 x 10^-4 molar
T1 construct: Humanplasmin und hu-manem NIH-Thrombin
From the text: (§1) Bei der Messung des durch die enzymatische Hydrolyse des Substrates gebildeten Spaltproduktes RrNH2 geht man von der Voraussetzung aus, dass das Spaltprodukt ein UV-Spektrum besitzt, das von demjenigen des Substrates verschieden und in Richtung höherer Wellenlängen verschoben ist. Die Absorption des Substrates bei 405 nm ist praktisch Null. p-Nitroanilin als Spaltprodukt weist ein Absorptionsmaximum bei 380 nm und einen molaren Extinktionskoeffizienten von 13'200 auf. Bei 405 nm ist der Extinktionskoeffizient nur wenig niedriger, d.h. […] Der Grad der enzymatischen Hydrolyse des Substrates, welcher der Menge des abgespaltenen p-Nitroanilins proportional ist, lässt sich durch spektrophotometrische Messung bei 405 nm bestimmen. Auch bei Anwesenheit eines Ueberschusses an Substrat wird die Messung bei 405 nm nicht gestört.
(§2) Bei den Substraten, die als chromogene Gruppe eine 2-Naphthylamino-, 4-Methoxy-2-naphthylamino-, 4-Methyl-cumaryl-(7)-amino- oder 1,3-Di(methoxycarbonyl)-phenyl-(5)-amino-Gruppe enthalten, wird die Menge des Spaltproduktes R-NH2 durch Fluoreszenzspektrophotometrie gemessen. In einem aus Enzym, Puffer und Substrat bestehenden Testsystem misst man kontinuierlich das energieärmere emittierte Licht bei 400-470 nm, nachdem man das gebildete fluoreszierende Spaltprodukt mit energiereicherem Licht erregt hat. Die pro Zeiteinheit gebildete Menge Spaltprodukt ist ein Mass für die vorhandene Enzymaktivität. 1 µMol Spaltprodukt pro Minute entspricht definitionsgemäss 1 Enzym-Einheit, bezogen auf ein gegebenes Substrat.

[2] = target: T2, Urinkallikrein (Homo sapiens, UniProt P06870); test: Cleavage of chromogenic substrate by urinary kallikrein in human urine; settings: 1 ml human urine (pooled morning urine of healthy persons), per min; Substratkonzentration 2 x 10^-4 molar
T2 construct: 1 ml Urin und 1 ml TRIS-Imidazol-Puffer mit pH 7,9; from tissue; host or cells: human urine
T2 sequence (P06870 25-262): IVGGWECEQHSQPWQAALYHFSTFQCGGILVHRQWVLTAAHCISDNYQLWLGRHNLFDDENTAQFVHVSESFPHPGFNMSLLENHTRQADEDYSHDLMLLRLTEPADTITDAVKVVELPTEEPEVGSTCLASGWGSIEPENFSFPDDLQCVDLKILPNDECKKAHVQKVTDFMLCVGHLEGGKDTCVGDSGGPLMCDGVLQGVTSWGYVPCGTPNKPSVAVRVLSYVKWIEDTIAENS
Experimental: 1. Bestimmung von Urinkallikrein.
1 ml Urin und 1 ml TRIS-Imidazol-Puffer mit pH 7,9 und Ionenstärke 1,0 werden 5 Min. bei 37°C inkubiert undcänn zentrifugiert, um Sedimente zu entfernen.
In einer-Plastikküvette werden 1,4 ml dest. H20 von 37°C und 0,4 ml des Zentrifugats gut gemischt. Zu dieser Mischung gibt man 0,2 ml einer 2 x 10^-3 molaren wässrigen Substratlösung und durchmischt die Komponenten schnell. Dieses Gemisch wird genau 15 Min. bei 37°C inkubiert. Dann wird dem Reaktionsgemisch 0,2 ml Eisessig zugemischt, um die Enzymreaktion zu unterbrechen. Zur Farbmessung verwendet man eine Vergleichsprobe (Blindprobe), die aus den gleichen Komponenten zusammengesetzt ist, wobei jedoch der Eisessig vor Zugabe des Substrates zugesetzt wird, um die Enzymreaktion zu verhindern. Dann wird bei 405 nm photometrisch oder spektrophotometrisch die Menge der gebildeten farbigen Verbindung RNH 2 aus der Differenz zwischen der Blindprobe und der zu bestimmenden Probe ermittelt. Aus dem ermittelten Wert wird die Urinkallikreinaktivität im Urin nach der folgenden Formel berechnet: [formula] • Δ OD = Zunahme der optischen Dichte bei 405 nm während 15 Min. • V = Totalvolumen des Bestimmungsansatzes = 2,2 ml • 1000 = Umrechnungsfaktor zur Umwandlung von U in mU • F = Verdünnungsfaktor des Urins (2) • v = Volumen der Probe = 0,4 ml • ε = Extinktionskoeffizient dividiert durch 1000 = 10,4
Bei der oben beschriebenen Bestimmungsmethode misst man somit die Summe der Aktivitäten von Urinkallikrein und Urokinase. Um die genaue Urinkallikreinaktivität zu erhalten, muss man die Urokinaseaktivität abziehen, welche dadurch bestimmt werden kann, dass man in einem Vergleichsversuch durch Zugabe von 0,075 Einheiten Trypsininhibitor (Trypsininhibitor aus Rinderlunge) pro ml Puffer die Urinkallikreinaktivität vollständig hemmt und nur die Urokinaseaktivität misst.
as §1, §2

[3] = target: T3, Humanplasmin (Homo sapiens, UniProt P00747); test: Cleavage of chromogenic substrate by human plasmin; settings: 1 CU-Einheit human plasmin, per min; Substratkonzentration 2 x 10^-4 molar
T3 construct: da bei der Aktivierung aus 1 Molekül Plasminogen 1 Molekül Plasmin entsteht
T3 sequence (P00747 581-810 limits assumed): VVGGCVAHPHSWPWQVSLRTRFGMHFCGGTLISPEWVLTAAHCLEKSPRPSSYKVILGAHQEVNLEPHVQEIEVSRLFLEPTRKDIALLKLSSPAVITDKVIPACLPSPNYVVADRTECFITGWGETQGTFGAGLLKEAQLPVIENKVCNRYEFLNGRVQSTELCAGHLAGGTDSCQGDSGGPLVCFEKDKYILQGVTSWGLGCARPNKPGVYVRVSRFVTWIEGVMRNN
T3 sequence (P00747 97-580 partner limits assumed): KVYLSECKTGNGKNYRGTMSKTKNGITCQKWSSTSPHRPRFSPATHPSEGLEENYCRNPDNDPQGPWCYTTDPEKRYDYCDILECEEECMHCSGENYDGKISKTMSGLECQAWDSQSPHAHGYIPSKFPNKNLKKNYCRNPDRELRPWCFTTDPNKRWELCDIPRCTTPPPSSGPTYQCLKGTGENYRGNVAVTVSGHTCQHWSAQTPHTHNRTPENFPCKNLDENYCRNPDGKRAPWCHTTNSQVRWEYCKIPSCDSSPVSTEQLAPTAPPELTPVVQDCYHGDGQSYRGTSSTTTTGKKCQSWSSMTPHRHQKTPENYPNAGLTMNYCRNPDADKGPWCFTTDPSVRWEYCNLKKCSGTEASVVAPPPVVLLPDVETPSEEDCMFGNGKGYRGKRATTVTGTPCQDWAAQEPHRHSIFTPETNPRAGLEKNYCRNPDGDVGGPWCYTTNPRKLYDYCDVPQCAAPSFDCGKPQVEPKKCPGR
Experimental: 3. Bestimmung von Plasmin:
Man mischt 1,7 ml TRIS-Imidazol-Puffer (pH 7,5, Ionenstärke 0,2) bei 37°C mit 0,1 ml einer Lösung von Plasmin in 25%igem Glycerin und inkubiert die Mischung während 1 Min. bei 37°C. Dann gibt man der Mischung 0,2 ml einer wässrigen 2 x 10^-3 molaren Substxatlösung von 37°C zu und durchmischt das Ganze schnell. Man ermittelt dann kontinuierlich die pro Zeiteinheit aus dem Substrat freigesetzte Menge des Spaltproduktes R-NH2. Aus dem pro Min. ermittelten Wert berechnet man dann die Plasminaktivität pro ml Probe in mU nach der folgenden Formel: [formula] • ΔE = pro Min. freigesetzte Menge des Spaltproduktes • V = Totalvolumen des Testansatzes • v = Volumen der Probe • = Extinktionskoeffizient dividiert durch 1000
as §1, §2

[4] = target: T4, Submandibularis-Kallikrein (Homo sapiens, UniProt P06870); test: Cleavage of chromogenic substrate by submandibular (glandular) kallikrein in human sputum; settings: 1 ml human sputum, per min; Substratkonzentration 2 x 10^-4 molar
T4 construct: Man mischt 0,5 ml Sputum mit 2 ml TRIS-Imidazol-Puffer; from tissue; host or cells: human sputum
T4 sequence (P06870 25-262): as the sequence (P06870 25-262) above
Experimental: 2. Bestimmung des Glandulärkallikreins im Sputum: • Man mischt 0,5 ml Sputum mit 2 ml TRIS-Imidazol-Puffer (Ionenstärke 1,0) und präinkubiert die Mischung 5 Min. bei 37°C. Das Inkubat wird zentrifugiert. In eine Testküvette wird 1,5 ml dest. H2O von 37°C vorgelegt und mit 0,25 ml des Zentrifugats versetzt. Die Komponenten werden gut gemischt. Dann wird 0,2 ml 2 x 10-^3 molare wässrige Substratlösung zugesetzt und gemischt. Dann wird bei 405 nm die Extinktions- änderung kontinuierlich mittels eines Schreibers während 5-10 Min. verfolgt. Aus dem ermittelten Δ OD pro Min. wird mittels der nachstehenden Formel die Kallikreinaktivität pro ml Sputum in mU errechnet: [formula] • F = 5 • V = 1,95 • v = 0,25 • 1 U (Einheit) = Enzymmenge, die während 1 Min. 1 µMol Substrat unter optimalen oder sonst festgelegten Bedingungen in Bezug auf pH, Ionenstärke, Temperatur und Substratkonzentration zu spalten vermag
as §1, with “gestört. […]” for “gestört.”

| SMILES | Menge des durch 1 NIH-Einheit Thrombin pro Min. freigesetzten Spaltproduktes R-NH2 in Nanomol (Humanthrombin) [1] | Menge des durch 1 ml Humanurin pro Min. freigesetzten Spaltproduktes R-NH2 in Nanomol (Urinkallikrein) [2] | Menge des durch 1 CU-Einheit Humanplasmin pro Min. freigesetzten Spaltproduktes R-NH2 in Nanomol (Humanplasmin) [3] | Menge des durch 1 ml Humansputum pro Min. freigesetzten Spaltproduktes R-NH2 in Nanomol (Submandibularis-Kallikrein) [4] |
| --- | --- | --- | --- | --- |
| C[C@H](NC(=O)[C@H](N)CC1CCCCC1)C(=O)N[C@@H](CCCNC(=N)N)C(=O)Nc1ccc([N+](=O)[O-])cc1 [Beispiel 49, 2HBr.H-D-CHA-Ala-Arg-pNA] (H-[dCha]-Ala-Arg-pNA) | 163,5 Nanomol | 0,66 Nanomol | 389 Nanomol | 10,6 Nanomol |
| COC(=O)c1cc(NC(=O)[C@H](CCCNC(=N)N)NC(=O)[C@H](CC2CCCCC2)NC(=O)[C@H](N)C(C)C)cc(C(=O)OC)c1 [Beispiel 5, 2HBr.H-D-Val-CHA-Arg-DPA] | – | 2,42 Nanomol | 408 Nanomol | 28,5 Nanomol |
| N=C(N)NCCC[C@H](NC(=O)[C@H](CC1CCCCC1)NC(=O)[C@H]1CCCN1)C(=O)Nc1ccc([N+](=O)[O-])cc1 [Beispiel 22, 2HBr.H-D-Pro-CHA-Arg-pNA] (H-[dP]-[Cha]-Arg-pNA) | 0,75 Nanomol | 0,63 Nanomol | 250 Nanomol | 11,7 Nanomol |
| NCCCC[C@H](NC(=O)[C@H](Cc1ccccc1)NC(=O)[C@H](N)C1CCCCC1)C(=O)Nc1ccc2ccccc2c1 [Beispiel 8, 2HBr.H-D-CHG-Phe-Lys-2-NA] (H-[dChg]-Phe-Lys-βNA) | – | 0,58 Nanomol | 1180 Nanomol | 17,6 Nanomol |
| COC(=O)c1cc(NC(=O)[C@H](CCCCN)NC(=O)[C@H](Cc2ccccc2)NC(=O)[C@H](N)C2CCCCC2)cc(C(=O)OC)c1 [Beispiel 6, 2HBr.H-D-CHG-Phe-Lys-DPA] | – | 0,72 Nanomol | 1215 Nanomol | 24,8 Nanomol |
| COc1cc(NC(=O)[C@H](CCCCN)NC(=O)[C@H](Cc2ccccc2)NC(=O)[C@H](N)C2CCCCC2)cc2ccccc12 [Beispiel 10, 2HBr.H-D-CHG-Phe-Lys-4-MeO-2-NA] | – | 0,61 Nanomol | 1165 Nanomol | 14,9 Nanomol |
| COc1cc(NC(=O)[C@H](CCCNC(=N)N)NC(=O)[C@H](CC2CCCCC2)NC(=O)[C@H](N)C(C)C)cc2ccccc12 [Beispiel 9, 2HBr.H-D-Val-CHA-Arg-4-MeO-2-NA] | – | 2,38 Nanomol | 388 Nanomol | 25,4 Nanomol |
| CC(C)C[C@H](NC(=O)[C@H](N)C(C)C)C(=O)N[C@@H](CCCNC(=N)N)C(=O)Nc1ccc([N+](=O)[O-])cc1 [A, 2HCl.H-D-Val-Leu-Arg-pNA, reference compound] (H-[dV]-Leu-Arg-pNA) | – | 0,90 Nanomol | 83 Nanomol | 12,2 Nanomol |
| CC(C)[C@@H](N)C(=O)N[C@@H](CC1CCCCC1)C(=O)N[C@@H](CCCNC(=N)N)C(=O)Nc1ccc2ccccc2c1 [Beispiel 7, 2HBr.H-D-Val-CHA-Arg-2-NA] (H-[dV]-[Cha]-Arg-βNA) | – | 2,55 Nanomol | 428 Nanomol | 31,1 Nanomol |
| Cc1cc(=O)oc2cc(NC(=O)[C@H](CCCCN)NC(=O)[C@H](Cc3ccccc3)NC(=O)[C@H](N)C3CCCCC3)ccc12 [Beispiel 4, 2HBr.H-D-CHG-Phe-Lys-MCA] (H-[dChg]-Phe-Lys-{AMC}) | – | 0,60 Nanomol | 1120 Nanomol | 15,7 Nanomol |
| Cc1cc(=O)oc2cc(NC(=O)[C@H](CCCNC(=N)N)NC(=O)[C@H](CC3CCCCC3)NC(=O)[C@H](N)C(C)C)ccc12 [Beispiel 3, 2HBr.H-D-Val-CHA-Arg-MCA] (H-[dV]-[Cha]-Arg-{AMC}) | – | 2,55 Nanomol | 430 Nanomol | 31,2 Nanomol |
| CC(C)C[C@H](NC(=O)[C@H](N)C(C)C)C(=O)N[C@@H](CCCCN)C(=O)Nc1ccc([N+](=O)[O-])cc1 [B, 2HCl.H-D-Val-Leu-Lys-pNA, reference compound] (H-[dV]-Leu-Lys-pNA) | – | 0,30 Nanomol | 347 Nanomol | 5,7 Nanomol |
| NCCCC[C@H](NC(=O)[C@H](Cc1ccccc1)NC(=O)[C@H](N)C1CCCCC1)C(=O)Nc1ccc([N+](=O)[O-])cc1 [Beispiel 2, 2HBr.H-D-CHG-Phe-Lys-pNA] (H-[dChg]-Phe-Lys-pNA) | – | 0,80 Nanomol | 1150 Nanomol | 25,6 Nanomol |
